Test [1] concerns the target T1, Kappa-type opioid receptor (Homo sapiens, UniProt P41145). In words: [35S]GTPγS Coupling Assay.
In test [2] the target is T1, Kappa-type opioid receptor. Description: β-Arrestin2 Assay.

T1 sequence (P41145 whole entry): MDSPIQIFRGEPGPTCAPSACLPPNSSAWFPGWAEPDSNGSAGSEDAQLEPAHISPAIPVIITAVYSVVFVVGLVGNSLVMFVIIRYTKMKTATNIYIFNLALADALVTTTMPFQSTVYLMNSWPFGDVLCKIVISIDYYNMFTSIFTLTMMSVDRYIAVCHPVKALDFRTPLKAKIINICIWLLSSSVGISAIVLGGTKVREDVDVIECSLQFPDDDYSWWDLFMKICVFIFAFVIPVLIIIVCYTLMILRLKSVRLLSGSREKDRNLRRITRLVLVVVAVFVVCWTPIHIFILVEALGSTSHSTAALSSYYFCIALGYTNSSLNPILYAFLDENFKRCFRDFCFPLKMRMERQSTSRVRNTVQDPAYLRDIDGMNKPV

As usually defined, the IC50 is the point on the concentration scale where inhibition reaches its midpoint. The low end stands for greater potency, the high end for weaker potency. In the case of `NC(N)=Nc1ccc2[nH]c3c(c2c1)C[C@@]1(O)[C@@H]2Cc4ccc(O)c5c4[C@@]1(CCN2CC1CC1)[C@H]3O5` [5'-Guanidinonaltrindole (5'-GNTI)], the IC50 in test [1] came to 0.07 nM; in test [2], 0.8 nM.

(Values after BindingDB's records for doi:10.1074/jbc.M113.476234 (The Scripps Research Institute, 2013).)
